Test results taken from ChEMBL document CHEMBL1641464, “1-(Arylsulfonyl)-2,3-dihydro-1H-quinolin-4-one derivatives as 5-HT(6) serotonin receptor ligands” (Bioorg Med Chem Lett, 2011).

Tests used:
[1] = target: T1, 5-hydroxytryptamine receptor 6 (Homo sapiens, UniProt P50406); test: Displacement of [3H]LSD from human 5HT6 receptor expressed in HEK293 cells; format: cell-based
D(2) dopamine receptor = D(2) dopamine receptor (Homo sapiens, UniProt P14416); test: Displacement of [3H]spiperone from human dopamine D2 receptor expressed in cells; format: cell-based
[2] = target: 5-hydroxytryptamine receptor 7 (Homo sapiens, UniProt P34969); test: Displacement of [3H]LSD from human 5HT7 receptor expressed in cells; format: cell-based
[3] = target: T2, 5-hydroxytryptamine receptor 2C (Homo sapiens, UniProt P28335); test: Displacement of [3H]mesulergine from human 5HT2C receptor expressed in cells; format: cell-based
T2 sequence (P28335 whole entry): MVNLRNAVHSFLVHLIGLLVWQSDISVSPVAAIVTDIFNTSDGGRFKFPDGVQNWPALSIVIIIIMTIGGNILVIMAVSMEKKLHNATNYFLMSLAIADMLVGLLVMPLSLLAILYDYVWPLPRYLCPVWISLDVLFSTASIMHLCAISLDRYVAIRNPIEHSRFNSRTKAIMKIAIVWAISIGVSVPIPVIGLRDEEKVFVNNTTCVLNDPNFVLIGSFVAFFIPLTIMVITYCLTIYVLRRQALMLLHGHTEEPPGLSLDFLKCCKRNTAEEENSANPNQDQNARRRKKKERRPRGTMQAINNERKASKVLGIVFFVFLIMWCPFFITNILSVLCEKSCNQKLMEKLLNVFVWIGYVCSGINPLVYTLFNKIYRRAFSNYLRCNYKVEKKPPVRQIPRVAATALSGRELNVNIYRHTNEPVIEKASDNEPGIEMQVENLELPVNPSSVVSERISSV

[4] = target: 5-hydroxytryptamine receptor 2A (Homo sapiens, UniProt P28223); test: Displacement of [3H]ketanserin from human 5HT2A receptor expressed in cells; format: cell-based
[5] = target: T3, 5-hydroxytryptamine receptor 1A (Homo sapiens, UniProt P08908); test: Displacement of [3H]8-OH-DPAT from human 5HT1A receptor expressed in cells; format: cell-based
T3 sequence (P08908 whole entry): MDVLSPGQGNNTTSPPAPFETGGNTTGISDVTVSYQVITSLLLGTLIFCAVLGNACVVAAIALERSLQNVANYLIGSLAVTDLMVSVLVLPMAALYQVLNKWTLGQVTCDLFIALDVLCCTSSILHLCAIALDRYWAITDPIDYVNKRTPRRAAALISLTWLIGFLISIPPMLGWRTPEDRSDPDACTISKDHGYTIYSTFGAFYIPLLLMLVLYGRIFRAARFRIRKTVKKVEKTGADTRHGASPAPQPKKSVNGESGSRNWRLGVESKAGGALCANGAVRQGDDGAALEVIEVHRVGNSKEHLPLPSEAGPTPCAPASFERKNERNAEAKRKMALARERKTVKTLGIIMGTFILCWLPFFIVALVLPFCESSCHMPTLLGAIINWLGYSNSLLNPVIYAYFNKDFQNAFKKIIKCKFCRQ

D(3) dopamine receptor = D(3) dopamine receptor (Homo sapiens, UniProt P35462); test: Displacement of [3H]spiperone from human dopamine D3 receptor expressed in cells; format: cell-based
[6] = Lipophilicity, log D of the compound; format: physicochemical; conditions: octanol/water
D(4) dopamine receptor = target: T4, D(4) dopamine receptor (Homo sapiens, UniProt P21917); test: Displacement of [3H]spiperone from human dopamine D4 receptor expressed in cells; format: cell-based
T4 sequence (P21917 whole entry): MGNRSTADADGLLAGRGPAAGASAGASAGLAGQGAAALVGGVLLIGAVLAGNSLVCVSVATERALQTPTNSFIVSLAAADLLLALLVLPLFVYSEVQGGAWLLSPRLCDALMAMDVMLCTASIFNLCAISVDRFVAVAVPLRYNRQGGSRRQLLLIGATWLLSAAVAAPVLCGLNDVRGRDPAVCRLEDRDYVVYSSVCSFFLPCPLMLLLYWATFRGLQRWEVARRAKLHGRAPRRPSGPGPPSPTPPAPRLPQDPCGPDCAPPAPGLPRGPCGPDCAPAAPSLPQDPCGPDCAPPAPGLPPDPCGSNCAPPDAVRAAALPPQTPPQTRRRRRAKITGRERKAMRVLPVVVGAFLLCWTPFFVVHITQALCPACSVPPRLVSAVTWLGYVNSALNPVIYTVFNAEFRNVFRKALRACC

[7] = target: T1, 5-hydroxytryptamine receptor 6; test: Antagonist activity at human 5HT6 receptor expressed in HeLa cells assessed as inhibition of 5-HT-stimulated cAMP accumulation; format: functional, cell-based
[8] = target: T1, 5-hydroxytryptamine receptor 6; test: Binding affinity to 5HT6 receptor

Sequence of D(2) dopamine receptor (P14416 whole entry): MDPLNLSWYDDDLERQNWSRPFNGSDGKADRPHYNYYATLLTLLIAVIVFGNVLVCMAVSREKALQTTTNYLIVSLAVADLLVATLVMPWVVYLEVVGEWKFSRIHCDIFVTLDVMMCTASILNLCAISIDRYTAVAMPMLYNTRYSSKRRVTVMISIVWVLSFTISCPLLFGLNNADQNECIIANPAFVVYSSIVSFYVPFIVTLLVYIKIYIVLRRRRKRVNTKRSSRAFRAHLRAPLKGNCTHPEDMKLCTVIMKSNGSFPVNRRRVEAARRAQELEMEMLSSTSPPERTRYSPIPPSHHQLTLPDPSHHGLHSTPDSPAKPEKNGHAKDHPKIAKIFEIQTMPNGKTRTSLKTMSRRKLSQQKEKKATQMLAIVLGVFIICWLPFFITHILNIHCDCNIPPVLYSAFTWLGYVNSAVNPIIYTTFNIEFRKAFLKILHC
Sequence of 5-hydroxytryptamine receptor 2A (P28223 whole entry): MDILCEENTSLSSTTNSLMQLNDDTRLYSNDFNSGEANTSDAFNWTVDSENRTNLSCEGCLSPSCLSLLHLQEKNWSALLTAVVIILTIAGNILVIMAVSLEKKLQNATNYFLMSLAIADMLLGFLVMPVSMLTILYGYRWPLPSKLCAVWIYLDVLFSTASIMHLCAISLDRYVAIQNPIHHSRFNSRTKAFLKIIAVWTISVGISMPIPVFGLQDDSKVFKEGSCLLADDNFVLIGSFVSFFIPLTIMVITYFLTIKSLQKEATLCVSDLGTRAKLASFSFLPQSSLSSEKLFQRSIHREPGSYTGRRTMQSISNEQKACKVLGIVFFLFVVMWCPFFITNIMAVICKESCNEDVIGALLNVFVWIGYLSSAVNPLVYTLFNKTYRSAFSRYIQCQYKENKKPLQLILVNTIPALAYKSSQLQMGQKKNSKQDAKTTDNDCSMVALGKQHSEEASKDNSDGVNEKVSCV
Sequence of D(3) dopamine receptor (P35462 whole entry): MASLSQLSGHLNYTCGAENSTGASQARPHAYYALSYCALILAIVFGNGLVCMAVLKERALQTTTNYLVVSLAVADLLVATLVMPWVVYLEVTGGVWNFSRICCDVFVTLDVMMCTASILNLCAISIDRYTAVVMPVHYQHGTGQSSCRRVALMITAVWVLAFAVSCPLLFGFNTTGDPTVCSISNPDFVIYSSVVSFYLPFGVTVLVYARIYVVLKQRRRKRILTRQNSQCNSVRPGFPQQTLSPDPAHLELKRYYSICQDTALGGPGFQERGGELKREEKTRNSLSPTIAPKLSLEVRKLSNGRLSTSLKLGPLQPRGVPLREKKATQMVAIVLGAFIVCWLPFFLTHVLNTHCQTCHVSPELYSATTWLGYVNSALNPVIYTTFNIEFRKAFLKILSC
T1 sequence (P50406 whole entry): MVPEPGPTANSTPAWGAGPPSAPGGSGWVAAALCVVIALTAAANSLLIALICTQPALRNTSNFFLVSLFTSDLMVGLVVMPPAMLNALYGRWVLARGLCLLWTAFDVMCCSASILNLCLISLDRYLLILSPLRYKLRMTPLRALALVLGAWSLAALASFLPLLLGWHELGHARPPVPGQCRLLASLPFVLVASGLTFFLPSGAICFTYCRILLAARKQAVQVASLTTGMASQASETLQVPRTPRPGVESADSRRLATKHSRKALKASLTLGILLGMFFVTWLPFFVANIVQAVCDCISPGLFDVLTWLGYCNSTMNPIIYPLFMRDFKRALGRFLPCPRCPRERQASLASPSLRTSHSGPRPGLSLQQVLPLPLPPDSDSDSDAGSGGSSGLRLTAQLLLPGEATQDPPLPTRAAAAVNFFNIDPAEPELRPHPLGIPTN
Sequence of 5-hydroxytryptamine receptor 7 (P34969 whole entry): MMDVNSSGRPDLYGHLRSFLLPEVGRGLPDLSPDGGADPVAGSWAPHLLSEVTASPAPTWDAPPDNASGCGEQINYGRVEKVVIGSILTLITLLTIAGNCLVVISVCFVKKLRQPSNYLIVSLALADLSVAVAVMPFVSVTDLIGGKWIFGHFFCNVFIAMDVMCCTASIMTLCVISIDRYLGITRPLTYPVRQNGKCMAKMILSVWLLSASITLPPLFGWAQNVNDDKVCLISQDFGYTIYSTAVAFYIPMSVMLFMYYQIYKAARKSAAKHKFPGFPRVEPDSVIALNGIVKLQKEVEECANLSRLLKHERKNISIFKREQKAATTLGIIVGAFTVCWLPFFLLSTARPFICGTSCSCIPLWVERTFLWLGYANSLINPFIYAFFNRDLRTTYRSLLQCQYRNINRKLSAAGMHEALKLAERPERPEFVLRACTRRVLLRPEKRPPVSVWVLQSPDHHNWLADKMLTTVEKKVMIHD

IC50 [1] [nM] | IC50 (D(2) dopamine receptor) [nM] | IC50 [2] [nM] | IC50 [3] [nM] | IC50 [4] [nM] | IC50 [5] [nM] | IC50 (D(3) dopamine receptor) [nM] | IC50 (D(4) dopamine receptor) [µM] | Structure (SMILES) | also measured
47 |  |  |  |  |  |  |  | CN1CCN(c2cc(Cl)cc3c2C(=O)CCN3S(=O)(=O)c2ccc3ccccc3c2)CC1 | 
28 | 136 | > 10000 | 558 | 1460 | 1600 | 1520 | > 10 | CC1CC(=O)c2ccc(N3CCN(C)CC3)cc2N1S(=O)(=O)c1ccc2ccccc2c1 (stereo not given) | logD [6]: 3.2
26 | > 10000 | 143 | 5190 | 366 | 672 | 1300 | 3.61 | CN1CCN(c2ccc3c(c2)N(S(=O)(=O)c2ccc4ccccc4c2)CCC3=O)CC1 | IC50 [7]: 188 nM
7 |  |  |  |  |  |  |  | C[C@H]1CC(=O)c2c(N3CCN(C)CC3)cccc2N1S(=O)(=O)c1ccc2ccccc2c1 | 
353 |  |  |  |  |  |  |  | C[C@@H]1CC(=O)c2c(N3CCN(C)CC3)cccc2N1S(=O)(=O)c1ccc2ccccc2c1 | 
419 |  |  |  |  |  |  |  | Cc1c(S(=O)(=O)N2CCC(=O)c3ccc(N4CCN(C)CC4)cc32)sc2ccc(Cl)cc12 | 
15 |  |  |  |  |  |  |  | Cc1ccc2c(c1N1CCN(C)CC1)C(=O)CC(C)N2S(=O)(=O)c1ccc2ccccc2c1 (stereo not given) | 
58 |  |  |  |  |  |  |  | CN1CCN(c2cc(Br)cc3c2C(=O)CCN3S(=O)(=O)c2ccc3ccccc3c2)CC1 | 
 |  |  |  |  |  |  |  | COc1ccc(NS(=O)(=O)c2sc3ccc(Cl)cc3c2C)cc1N1CCN(C)CC1 | logD [6]: 2.99
129 |  |  |  |  |  |  |  | Cc1ccc(S(=O)(=O)N2CCC(=O)c3c(N4CCN(C)CC4)cccc32)cc1 | 
17 |  |  |  |  |  |  |  | C[C@H]1CC(=O)c2ccc(N3CCN(C)CC3)cc2N1S(=O)(=O)c1ccc2ccccc2c1 | 
311 |  |  |  |  |  |  |  | CN1CCN(c2ccc3c(c2)C(=O)CCN3S(=O)(=O)c2ccc3ccccc3c2)CC1 | 
11 | 1780 | > 10000 | 19 | 704 | 1230 | 180 | > 10 | Cc1cc(N2CCN(C)CC2)c2c(c1)N(S(=O)(=O)c1ccc3ccccc3c1)C(C)CC2=O (stereo not given) | 
165 |  |  |  |  |  |  |  | COc1cc2c(cc1N1CCN(C)CC1)N(S(=O)(=O)c1ccc3ccccc3c1)CCC2=O | 
9 | > 1000 | > 10000 | 4 | 455 | 999 | 623 | > 10 | CCC1CC(=O)c2c(N3CCN(C)CC3)cccc2N1S(=O)(=O)c1ccc2ccccc2c1 (stereo not given) | 
61 | > 10000 | 620 | 438 | 760 | 333 | 2920 | 1.79 | CN1CCN(c2cccc3c2C(=O)CCN3S(=O)(=O)c2ccc3ccccc3c2)CC1 | 
 |  |  |  |  |  |  |  | CSc1nn2c(N3CCNCC3)c3c(nc2c1S(=O)(=O)c1ccccc1)CCC3 | Ki [8]: 2.51 nM
8 | > 10000 | 2010 | 30 | 48 | 1210 | 482 | 5.52 | CC1CC(=O)c2c(N3CCN(C)CC3)cccc2N1S(=O)(=O)c1ccc2ccccc2c1 (stereo not given) | logD [6]: 3.6
43 |  |  |  |  |  |  |  | C[C@@H]1CC(=O)c2ccc(N3CCN(C)CC3)cc2N1S(=O)(=O)c1ccc2ccccc2c1 | 
42 |  |  |  |  |  |  |  | CC1CC(=O)c2c(N3CCNCC3)cccc2N1S(=O)(=O)c1ccc2ccccc2c1 (stereo not given) | 
